± gives the expanded uncertainty stated by the source. Each block holds one compound with its values, some of them ahead of it.
Test: wn = mass fraction of the nth substance listed
Conditions: 298.15 K, 101 kPa, Liquid, Pycnometric method

mass density (w1 = 0.3108): 1314.6 ± 2.2 kg/m3
Compound: [Cl][Al]([Cl])[Cl] [aluminum chloride] + O

mass density (w1 = 0.5069): 1521.5 ± 3.3 kg/m3
Compound: [Cl][Fe]([Cl])[Cl] [ferric chloride] + O

mass density (w1 = 0.4647): 1456.1 ± 2.3 kg/m3
Compound: [Ca+2].[Cl-].[Cl-] [calcium chloride] + O

Source: the NIST ThermoML archive (doi:10.1021/acs.jced.5b00932)
